# Source: paper PMC4995097, “Talin-KANK1 interaction controls the recruitment of cortical microtubule stabilizing complexes to focal adhesions” (eLife, 2016)
# Legend:
# Format in all cases: cell-based, human
# [1] = tested on: LL5β at the cell edge of HeLa cells; assay: Peripheral clustering of LL5β; details: talin1/2-depleted HeLa rescue (Fig 4G); mean, n = 12, SEM 4.85049
# Protocol: (§1) HeLa Kyoto cell line was described previously ([Lansbergen et al., 2006]; [Mimori-Kiyosue et al., 2005]). HEK293T cells were purchased from ATCC; culture and transfection of DNA and siRNA into these cell lines was performed as previously described ([van der Vaart et al., 2013]). HaCaT cells were purchased at Cell Line Service (Eppelheim, Germany) and cultured according to manufacturer’s instructions. The cell lines were routinely checked for mycoplasma contamination using LT07-518 Mycoalert assay (Lonza, Switzerland).The identity of the cell lines was monitored by immunofluorescence-staining-based analysis with multiple markers. Blebbistatin was purchased from Enzo Life Sciences and used at 50 μM. Serum starvation in HeLa cells was done for 48 hr and focal adhesion assembly was stimulated by incubation with fetal calf serum-containing medium with or without blebbistatin for 2 hr. ROCK1 inhibitor Y-27632 was purchased at Sigma-Aldrich and used at 1 or 10 μM. Double stable HeLa cell line expressing GFP-KANK1 and TagRFP-paxillin was made by viral infection. We used a pLVIN-TagRFP-paxillin-based lentivirus and a pQC-GFP-KANK1-based retrovirus packaged in HEK293T cells using respectively Lenti-X HTX packaging and pCL-Ampho vectors. Antibiotic selection was applied to cells 48 hr after infection using 500 μg/ml G418 (Geneticin, Life Technologies) and 1 μg/ml puromycin (InvivoGen).
# (§2) Antibodies against HA and GFP tags, and liprin β1 used for Western blot analysis were previously described ([van der Vaart et al., 2013]). Rabbit antibodies against KANK1 (HPA005539) and KANK2 (HPA015643) were purchased at Sigma-Aldrich. Western blot analysis of KANK1 was performed using rabbit polyclonal KANK1 antibody (A301-882A) purchased at Bethyl Laboratories. Talin immunofluorescence staining was performed using mouse monoclonal 8d4 antibody (Sigma-Aldrich). Western blot analysis of talin 1 and 2 expression was performed using respectively the isotype specific mouse monoclonal 97H6 (Sigma-Aldrich) and 68E7 (Abcam) antibodies. Ku80 (7/Ku80) antibody was purchased from BD Biosciences. Immunofluorescence staining of KANK1, LL5β, liprin β1, KIF21A and CLASP2 in HeLa and HaCaT cells was performed using the antibodies and procedures previously described ([Lansbergen et al., 2006]; [van der Vaart et al., 2013]). F-actin was stained using Alexa Fluor 594-conjugated phalloidin (Life Technologies). Phospho-tyrosine mouse antibody (PT-66) was purchased from Sigma-Aldrich and rabbit FAK phospho-tyrosine 397 was purchased from Biosource.
# (§3) Fixed samples and corresponding immunofluorescence images were acquired using widefield fluorescence illumination on a Nikon Eclipse 80i or Ni upright microscope equipped with a CoolSNAP HQ2 CCD camera (Photometrics) or a DS-Qi2 camera (Nikon) an Intensilight C-HGFI precentered fiber illuminator (Nikon), ET-DAPI, ET-EGFP and ET-mCherry filters (Chroma), Nikon NIS Br software, Plan Apo VC 100x NA 1.4 oil, Plan Apo Lambda 100X oil NA 1.45 and Plan Apo VC 60x NA 1.4 oil (Nikon) objectives. […]
# [2] = tested on: KANK1 at the cell edge of HeLa cells; assay: Peripheral clustering of KANK1
# Protocol: as §1, §2
# Fixed samples and corresponding immunofluorescence images were acquired using widefield fluorescence illumination on a Nikon Eclipse 80i or Ni upright microscope equipped with a CoolSNAP HQ2 CCD camera (Photometrics) or a DS-Qi2 camera (Nikon) an Intensilight C-HGFI precentered fiber illuminator (Nikon), ET-DAPI, ET-EGFP and ET-mCherry filters (Chroma), Nikon NIS Br software, Plan Apo VC 100x NA 1.4 oil, Plan Apo Lambda 100X oil NA 1.45 and Plan Apo VC 60x NA 1.4 oil (Nikon) objectives. TIRFM-based live cell imaging was performed using the setup described before ([van der Vaart et al., 2013]) or a similar Nikon Ti microscope-based Ilas^2 system (Roper Scientific, Evry, FRANCE) equipped with dual laser illuminator for azimuthal spinning TIRF (or Hilo) illumination, 150 mW 488 nm laser and 100 mW 561 nm laser, 49,002 and 49,008 Chroma filter sets, EMCCD Evolve mono FW DELTA 512x512 camera (Roper Scientific) with the intermediate lens 2.5X (Nikon C mount adapter 2.5X), CCD camera CoolSNAP MYO M-USB-14-AC (Roper Scientific) and controlled with MetaMorph 7.8.8 software (Molecular Devices). Simultaneous imaging of […] was performed as described before ([van der Vaart et al., 2013]) or using the Optosplit III image splitter device (Andor) on the Ilas^2 system.
# For presentation, images were adjusted for brightness and processed by Gaussian blur and Unsharp mask filter using ImageJ 1.47v (NIH). […]
# [3] = tested on: KIF21A at the cell edge of HeLa cells; assay: Peripheral clustering of KIF21A; details: talin1/2-depleted HeLa rescue (Fig 4G); mean, n = 12, SEM 3.66709
# Protocol: as §1, with “ROCK1 inhibitor Y-27632 was purchased at Sigma-Aldrich and used at 1 or 10 μM. Double stable HeLa cell line expressing GFP-KANK1 and TagRFP-paxillin was made by viral infection. We used a pLVIN-TagRFP-paxillin-based lentivirus and a pQC-GFP-KANK1-based retrovirus packaged in HEK293T cells using respectively Lenti-X HTX packaging and pCL-Ampho vectors. Antibiotic selection was applied to cells 48 hr after infection using 500 μg/ml G418 (Geneticin, Life Technologies) and 1 μg/ml puromycin (InvivoGen).” left out
# as §3
# [4] = tested on: focal adhesions in HeLa cells; assay: FA number
# Protocol: as §1
# (§4) For presentation, images were adjusted for brightness and processed by Gaussian blur and Unsharp mask filter using ImageJ 1.47v (NIH). Fluorescence profiles are values measured by line scan analysis in ImageJ, normalized by background average fluorescence, expressed as a factor of the baseline value obtained for individual channel and plotted as a function of maximum length factor of the selection line (distance ratio). Protein clustering at the cell edge is the ratio of the total fluorescence in the first 5 μm from the cell edge to the next 5 μm measured by line scan analysis in ImageJ after thresholding for cell outline marking and out-of-cell region value assigned to zero. The results were plotted as percentage of control condition average value. FA counting and area measurement was performed using Analyze Particles under ImageJ on focal adhesion binary mask obtained after Gaussian blur/threshold-based cell outline marking and background subtraction (rolling ball radius, 10 pixels). KANK1/talin colocalization was analyzed using Pearson R value provided by Colocalization Analysis plugin under FiJi-ImageJ and a 3 μm diameter circular ROI centered on talin clusters detected by immunofluorescent staining.
# [5] = tested on: focal adhesions in HeLa cells; assay: FA area; design: AV areaFA: unit not given here; details: HeLa, TLN1-KD, mTLN1 rescue; mean of per-cell averages, Count 12
# Protocol: HeLa Kyoto cell line was described previously ([Lansbergen et al., 2006]; [Mimori-Kiyosue et al., 2005]). HEK293T cells were purchased from ATCC; culture and transfection of DNA and siRNA into these cell lines was performed as previously described ([van der Vaart et al., 2013]). HaCaT cells were purchased at Cell Line Service (Eppelheim, Germany) and cultured according to manufacturer’s instructions. The cell lines were routinely checked for mycoplasma contamination using LT07-518 Mycoalert assay (Lonza, Switzerland).The identity of the cell lines was monitored by immunofluorescence-staining-based analysis with multiple markers. Blebbistatin was purchased from Enzo Life Sciences and used at 50 μM. […]
# For presentation, images were adjusted for brightness and processed by Gaussian blur and Unsharp mask filter using ImageJ 1.47v (NIH). Fluorescence profiles are values measured by line scan analysis in ImageJ, normalized by background average fluorescence, expressed as a factor of the baseline value obtained for individual channel and plotted as a function of maximum length factor of the selection line (distance ratio). Protein clustering at the cell edge is the ratio of the total fluorescence in the first 5 μm from the cell edge to the next 5 μm measured by line scan analysis in ImageJ after thresholding for cell outline marking and out-of-cell region value assigned to zero. […]
# [6] = tested on: HeLa cells; assay: Cell area, attachment and spreading; design: AV Cell Area: unit not given here
# Protocol: as §1, §4
# [7] = tested on: microtubule plus ends in HeLa cells; assay: Ratio of microtubule growth rate in the cell center and at the cell edge; details: depletion and rescue, EB3-mRFP
# Protocol: (§5) nEB3-mRFP dynamics was recorded by 0.5 s interval time lapse TIRF imaging. Microtubule growth was measured using kymographs obtained from EB3-mRFP time lapse image series, plotted and presented as previously described ([van der Vaart et al., 2013]). Ratio of microtubule growth in cell center to periphery was obtained as values for individual cells. Microtubule growth trajectory angle to the cell edge was manually measured in ImageJ using tracks obtained by maximum intensity projection of EB3-mRFP image series.
# [8] = tested on: microtubule plus ends in HeLa cells; assay: Angles of microtubule growth relative to the cell margin; details: talin1/2-depleted HeLa
# Protocol: as §5
substance,measurement,setting,value
GFP-talin1-G1404L: GFP-tagged mouse talin1 with single point mutation G1404L,"Peripheral clustering of LL5β, percentage of control, AV, talin rescue",[1],20.7686 percentage of control condition average value
same,"Peripheral clustering of KANK1, edge ratio, AV","[2]; talin1/2-depleted HeLa rescued with GFP-talin1 (Fig 3F), mean, n = 12",0.9974
same,"KANK1 distribution, talin rescue (in words)","[2]; talin1/2-depleted HeLa, Figure 3E,F",dispersed over the plasma membrane
same,"Peripheral clustering of KIF21A, percentage of control, AV, talin rescue",[3],41.905 percentage of control condition average value
same,AV #FA,"[4]; HeLa, TLN1-KD, mTLN1 rescue, mean FA number per cell, Count 12",55.3333
same,number and size of focal adhesions (in words),[4]; compared to rescue with wild type talin1,not significantly different
same,AV areaFA,[5],1.146
same,AV Cell Area,"[6]; HeLa, TLN1-KD, mTLN1 rescue, mean, Count 13",1671.82
same,cell area (in words),[6]; compared to rescue with wild type GFP-talin1,slightly increased compared to cells rescued with the wild type GFP-talin1
same,cell attachment and spreading (in words),[6]; talin1/2-depleted HeLa,could fully support cell attachment and spreading
same,"microtubule growth, fold slower at cell margin/edge than in cell center",[7],1.5 fold
same,proportion of microtubules growing parallel to the cell edge (in words),[8],greatly increased
